Experimental findings from ChEMBL document CHEMBL5154942, “Discovery of Clinical Candidate NTQ1062 as a Potent and Bioavailable Akt Inhibitor for the Treatment of Human Tumors” (J Med Chem, 2022) are described below.

Data set [1] relates to LNCaP. In words: Induction of cell cycle arrest in human LNCap cells assessed as decrease in accumulation at G2/M phase at 0.04 to 1 uM incubated for 24 hrs by flow cytometry. It is filed as functional, cell-based. Particulars: dose 0.04-1 µM. (In general: In flow cytometry, cells or beads pass a laser one at a time.)
In data set [2] the test system is LNCaP. In words: Induction of apoptosis in human LNCaP cells assessed as apoptotic cells incubated for 72 hrs by annexin V/PI double staining based flow cytometry method. It is filed as functional, cell-based. Particulars: dose 0.62-2.5 µM, DDE = dose-dependent effect.
Data set [3] is described as follows: Cmax in crab-eating monkey at 3 mg/kg, iv measured upto 24 hrs by UPLC-MS/MS analysis. It is filed as ADME, organism-based, Macaca fascicularis. Further details: dose 3 mg/kg, time < 24 hrs, route iv. Particulars: cynomolgus monkey, in vivo.
Data set [4] concerns LNCaP. In words: Induction of apoptosis in human LNCaP cells assessed as necrotic cells at […] incubated for 72 hrs by annexin V/PI double staining based flow cytometry method (reference value: 2.41%). It is filed as functional.
For data set [5], the target named is Protein kinase C eta type (Homo sapiens) (UniProt P24723). In words: Inhibition of PKCeta (unknown origin) at 1 uM in presence of ATP at Km concentration by mobility shift assay relative to control.
The target of data set [6] is Cytochrome P450 2D6 (Homo sapiens, UniProt P10635). In words: Inhibition of CYP2D6 in human liver microsomes at 0.01 to 30 uM using dextromethorphan as substrate in presence of NADPH by UPLC-MS/MS analysis. It is filed as ADME, Microsome. On the technique in general: Liver microsomes are vesicles of endoplasmic reticulum, rich in cytochrome P450 enzymes.
The nature of data set [7]: Half life in crab-eating monkey at 6 mg/kg, ig by UPLC-MS/MS analysis. Particulars: cynomolgus monkey, in vivo, po. It is filed as ADME, organism-based, Macaca fascicularis.
A short description of data set [8]: Half life in Sprague-Dawley rat at 5 mg/kg, iv measured upto 24 hrs by UPLC-MS/MS analysis. It is filed as ADME, organism-based. Particulars: in vivo.
Data set [9] is described as follows: Cmax in NCG mouse xenografted with human LNCaP cells at 50 mg/kg administered once daily for 18 to 21 days and measured upto 10 hrs post last dose by LC-MS/MS analysis. It is filed as ADME, organism-based. Also noted: dose 50 mg/kg, time 18-21 day. Particulars: in vivo. (In general: In xenograft studies the graft and the host belong to different species.)
The nature of data set [10]: Bioavailability in Sprague-Dawley rat at 10 mg/kg, ig by UPLC-MS/MS analysis. Particulars: in vivo, po. It is filed as ADME, organism-based.
The nature of data set [11]: Tmax in NCG mouse xenografted with human LNCaP cells at 12.5 mg/kg administered once daily for 18 to 21 days and measured upto 10 hrs post last dose by LC-MS/MS analysis. It is filed as ADME, organism-based. Particulars: in vivo, time 18-21 day.

Calls of active or inactive are those of the source. No cut-off for these calls is given here.

Sequence of Protein kinase C eta type (Homo sapiens) (P24723 whole entry): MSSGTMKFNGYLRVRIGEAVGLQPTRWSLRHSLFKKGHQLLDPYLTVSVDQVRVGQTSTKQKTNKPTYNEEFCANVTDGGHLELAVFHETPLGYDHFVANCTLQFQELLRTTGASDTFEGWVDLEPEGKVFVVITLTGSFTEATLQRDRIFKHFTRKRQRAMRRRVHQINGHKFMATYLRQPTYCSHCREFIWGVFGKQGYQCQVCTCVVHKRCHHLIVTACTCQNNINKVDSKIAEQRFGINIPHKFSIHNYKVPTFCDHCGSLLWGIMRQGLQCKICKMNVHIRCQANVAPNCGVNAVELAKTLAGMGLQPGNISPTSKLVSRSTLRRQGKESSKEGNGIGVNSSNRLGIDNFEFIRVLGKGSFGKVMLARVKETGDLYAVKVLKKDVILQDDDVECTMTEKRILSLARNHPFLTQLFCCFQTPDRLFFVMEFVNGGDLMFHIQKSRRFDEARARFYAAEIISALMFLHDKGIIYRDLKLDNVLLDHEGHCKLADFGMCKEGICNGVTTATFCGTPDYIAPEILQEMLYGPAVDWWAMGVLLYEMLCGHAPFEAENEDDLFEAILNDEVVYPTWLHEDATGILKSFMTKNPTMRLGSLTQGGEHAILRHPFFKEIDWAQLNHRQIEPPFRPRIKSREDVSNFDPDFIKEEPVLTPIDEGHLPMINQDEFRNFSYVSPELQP
Sequence of Cytochrome P450 2D6 (P10635 whole entry): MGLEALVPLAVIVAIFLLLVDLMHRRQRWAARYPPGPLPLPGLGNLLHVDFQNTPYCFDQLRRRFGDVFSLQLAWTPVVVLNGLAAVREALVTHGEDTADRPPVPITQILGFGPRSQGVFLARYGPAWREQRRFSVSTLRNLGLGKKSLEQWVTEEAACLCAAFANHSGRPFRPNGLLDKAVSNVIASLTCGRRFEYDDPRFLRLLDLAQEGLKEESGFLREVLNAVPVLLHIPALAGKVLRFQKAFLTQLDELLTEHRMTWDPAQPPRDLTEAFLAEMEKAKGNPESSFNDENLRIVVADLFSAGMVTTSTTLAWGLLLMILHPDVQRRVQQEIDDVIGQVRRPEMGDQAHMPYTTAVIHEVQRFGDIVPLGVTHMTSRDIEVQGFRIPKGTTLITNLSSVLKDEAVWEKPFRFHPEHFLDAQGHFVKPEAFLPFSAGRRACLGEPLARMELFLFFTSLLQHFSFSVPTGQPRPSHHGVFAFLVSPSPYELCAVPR

As a reminder, the Cmax is the peak of the concentration-time curve. One may read the inhibition as the share of the control response that was lost under treatment. As a reminder, the IC50 is the point on the concentration scale where inhibition reaches its midpoint. The half-life is the time in which the quantity being followed falls by half. What is called Tmax is the time from dosing to the highest level. As to `CC(C)NC[C@@H](C(=O)N1CCN(c2ncnc3c2[C@H](C)CC(=O)N3)[C@H]2C[C@H]21)c1ccc(Cl)cc1`, in [1], the outcome was Active. Also, the values for the Activity entry in [2], in [4] (dose 0.62 µM) and in data set [4] (dose 2.5 µM) were “Dde”, 4.72% and 6%, respectively. The Cmax in data set [3] was determined as 702 ng/mL; in data set [9] it was 3050 ng/mL. The inhibition in [5] was 90%. In addition, the half-inhibitory concentration (IC50) in data set [6] is 20.6 µM. The half-life in data set [7] was 6.16 h; in data set [8] it was 2.97 h. In [10], the bioavailability was 110%. Besides, the Tmax in data set [11] is 2 h.
